Results taken from patent US12344597B2, “Alkoxy-substituted pyridinyl derivatives as LPA1 receptor antagonists and their use in the treatment of fibrosis” (IDORSIA PHARMACEUTICALS LTD, priority 2018, dated 2025).

Biological target: human LPA1 receptor (Homo sapiens (Human), UniProt Q92633)
Test: Beta-arrestin recruitment assay to determine IC50 values for human LPAR1
Type: cell-based
Conditions: antagonist mode, Tango EDG2-bla U2OS cells, LPA 18:1 500 nM final
Procedure, shortened: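 Antagonist IC50 = concentration giving 50% inhibition of maximal LPA response. Read-out is beta-lactamase reporter activity after arrestin-protease recruitment in U2OS cells bearing LPA1-TEV-Gal4-VP16 construct; cells pre-incubated 20 h, 37 °C, 5% CO2.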

Sequence of human LPA1 receptor (Q92633 whole entry): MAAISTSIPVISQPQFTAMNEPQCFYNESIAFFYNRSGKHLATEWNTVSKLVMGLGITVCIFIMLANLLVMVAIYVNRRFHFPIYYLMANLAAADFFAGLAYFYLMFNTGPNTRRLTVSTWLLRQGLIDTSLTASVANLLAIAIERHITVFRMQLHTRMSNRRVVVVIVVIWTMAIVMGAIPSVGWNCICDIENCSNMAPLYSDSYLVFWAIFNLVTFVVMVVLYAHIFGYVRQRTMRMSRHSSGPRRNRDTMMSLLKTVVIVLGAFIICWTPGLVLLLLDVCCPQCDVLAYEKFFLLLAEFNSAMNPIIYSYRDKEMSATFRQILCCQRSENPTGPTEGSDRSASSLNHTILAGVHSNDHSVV

Row | Compound | IC50 [nM]
1 | Cc1ccc(NC(=O)C2(c3ccccc3C(C)C)CN(C(=O)C3C[C@H](O)CN3)C2)c(OC(F)F)n1 (stereo partly drawn) [Ex 12-41, N-(2-(difluoromethoxy)-6-methylpyridin-3-yl)-1-((4S)-4-hydroxypyrrolidine-2-carbonyl)-3-(2-isopropylphenyl)azetidine-3-carboxamide] | 69
2 | 5-(3-((2-(difluoromethoxy)-6-methylpyridin-3-yl)carbamoyl)-3-(2-isopropylphenyl)azetidin-1-yl)-2-methylpentan-2-yl acetate [Ex 11-65] | 315
3 | COCCN(CC(=O)OC)CC(=O)N1CC(C(=O)Nc2ccc(C)nc2OC(F)F)(c2ccccc2C(C)C)C1 [Ex 54, methyl N-(2-(3-((2-(difluoromethoxy)-6-methylpyridin-3-yl)carbamoyl)-3-(2-isopropylphenyl)azetidin-1-yl)-2-oxoethyl)-N-(2-methoxyethyl)glycinate] | 69
4 | CCCN(CC(=O)O)CC(=O)N1CC(C(=O)Nc2ccc(C)nc2OC(F)F)(c2ccccc2C(C)C)C1 [Ex 42, N-(2-(3-((2-(difluoromethoxy)-6-methylpyridin-3-yl)carbamoyl)-3-(2-isopropylphenyl)azetidin-1-yl)-2-oxoethyl)-N-propylglycine] | 7
5 | Cc1cnc(NC(=O)C2(c3ccccc3C(C)C)CN(C3=NC(=O)CO3)C2)c(OC(F)F)c1 [Ex 84, N-(3-(difluoromethoxy)-5-methylpyridin-2-yl)-3-(2-isopropylphenyl)-1-(4-oxo-4,5-dihydrooxazol-2-yl)azetidine-3-carboxamide] | 310
6 | Cc1ccc(NC(=O)C2(c3ccccc3C(C)C)CCNCC2)c(OC(F)F)n1 [Ex 4, N-(2-(difluoromethoxy)-6-methylpyridin-3-yl)-4-(2-isopropylphenyl)piperidine-4-carboxamide] | 8
7 | Cc1ccc(NC(=O)C2(c3ccccc3C(C)C)CN(C(=O)CCOCCOCC(=O)O)C2)c(OC(F)F)n1 [Ex 12-121, 2-(2-(3-(3-((2-(difluoromethoxy)-6-methylpyridin-3-yl)carbamoyl)-3-(2-isopropylphenyl)azetidin-1-yl)-3-oxopropoxy)ethoxy)acetic acid] | 310
8 | C=C(CC(=O)O)C(=O)N1CC(C(=O)Nc2ccc(C)nc2OC(F)F)(c2ccccc2C(C)C)C1 [Ex 12-93, 3-(3-((2-(difluoromethoxy)-6-methylpyridin-3-yl)carbamoyl)-3-(2-isopropylphenyl)azetidine-1-carbonyl)but-3-enoic acid] | 7
9 | Cc1ccc(NC(=O)C2(c3ccccc3C(C)C)CN(CC3(C(=O)O)COC3)C2)c(OC(F)F)n1 [Ex 11-91, 3-((3-((2-(difluoromethoxy)-6-methylpyridin-3-yl)carbamoyl)-3-(2-isopropylphenyl)azetidin-1-yl)methyl)oxetane-3-carboxylic acid] | 46
10 | Cc1ccc(NC(=O)C2(c3ccccc3C(C)C)CN(CCC(C)(C)C(=O)NS(C)(=O)=O)C2)c(OC(F)F)n1 [Ex 53, N-(2-(difluoromethoxy)-6-methylpyridin-3-yl)-1-(3,3-dimethyl-4-(methylsulfonamido)-4-oxobutyl)-3-(2-isopropylphenyl)azetidine-3-carboxamide] | 17
11 | CC(C)c1ccccc1C1(C(=O)Nc2ncc(Cl)cc2OC(F)F)CNC1 [Ex 72, N-(5-chloro-3-(difluoromethoxy)pyridin-2-yl)-3-(2-isopropylphenyl)azetidine-3-carboxamide] | 15
12 | Cc1ccc(NC(=O)C2(c3ccccc3C(C)C)CN(C(=O)[C@H](C)NC(=O)OC(C)(C)C)C2)c(OC(F)F)n1 [Ex 12-32, tert-butyl (S)-(1-(3-((2-(difluoromethoxy)-6-methylpyridin-3-yl)carbamoyl)-3-(2-isopropylphenyl)azetidin-1-yl)-1-oxopropan-2-yl)carbamate] | 1720
13 | CC(=O)N(O)CC(=O)N1CC(C(=O)Nc2ccc(C)nc2OC(F)F)(c2ccccc2C(C)C)C1 [Ex 12-136, 1-(N-acetyl-N-hydroxyglycyl)-N-(2-(difluoromethoxy)-6-methylpyridin-3-yl)-3-(2-isopropylphenyl)azetidine-3-carboxamide] | 9
14 | Cc1ccc(NC(=O)C2(c3ccccc3C(C)C)CN(C(=O)CN[C@H](C)CO)C2)c(OC(F)F)n1 [Ex 12-58, (R)-N-(2-(difluoromethoxy)-6-methylpyridin-3-yl)-1-((R)-(1-hydroxypropan-2-yl)glycyl)-3-(2-isopropylphenyl)azetidine-3-carboxamide] | 10
15 | Cc1ccc(NC(=O)C2(c3ccccc3C(C)C)CN(C(=O)CN(CC(=O)O)C3CC3)C2)c(OC(F)F)n1 [Ex 43, N-cyclopropyl-N-(2-(3-((2-(difluoromethoxy)-6-methylpyridin-3-yl)carbamoyl)-3-(2-isopropylphenyl)azetidin-1-yl)-2-oxoethyl)glycine] | 14
16 | Cc1ccc(NC(=O)C2(c3ccccc3C(C)C)CN(C3=NC(=O)CO3)C2)c(OC(F)F)n1 [Ex 19, N-(2-(difluoromethoxy)-6-methylpyridin-3-yl)-3-(2-isopropylphenyl)-1-(4-oxo-4,5-dihydrooxazol-2-yl)azetidine-3-carboxamide] | 4
17 | CCOC(=O)c1cc(CN2CC(C(=O)Nc3ccc(C)nc3OC(F)F)(c3ccccc3C(C)C)C2)on1 [Ex 11-34, ethyl 5-((3-((2-(difluoromethoxy)-6-methylpyridin-3-yl)carbamoyl)-3-(2-isopropylphenyl)azetidin-1-yl)methyl)isoxazole-3-carboxylate] | 79
18 | CNC[C@H](O)CN1CC(C(=O)Nc2ccc(C)nc2OC(F)F)(c2ccccc2C(C)C)C1 [Ex 11-84, (S)-N-(2-(difluoromethoxy)-6-methylpyridin-3-yl)-1-(2-hydroxy-3-(methylamino)propyl)-3-(2-isopropylphenyl)azetidine-3-carboxamide] | 45
19 | Cc1ccc(NC(=O)C2(c3ccccc3C(C)C)CN(C(=O)CS(N)(=O)=O)C2)c(OC(F)F)n1 [Ex 12-4, N-(2-(difluoromethoxy)-6-methylpyridin-3-yl)-3-(2-isopropylphenyl)-1-(2-sulfamoylacetyl)azetidine-3-carboxamide] | 20

Continued, values first:

Row | IC50 [nM] | Compound
20 | 10 | Cc1ccc(NC(=O)C2(c3cc(F)ccc3C(C)C)CN(C(=O)CC(C)(C)C(=O)O)C2)c(OC(F)F)n1 [Ex 39-5, 4-(3-((2-(difluoromethoxy)-6-methylpyridin-3-yl)carbamoyl)-3-(5-fluoro-2-isopropylphenyl)azetidin-1-yl)-2,2-dimethyl-4-oxobutanoic acid]
21 | 7 | Cc1ccc(NC(=O)C2(c3ccccc3C(C)C)CN(S(=O)(=O)CC(=O)O)C2)c(OC(F)F)n1 [Ex 13-1, 2-((3-((2-(difluoromethoxy)-6-methylpyridin-3-yl)carbamoyl)-3-(2-isopropylphenyl)azetidin-1-yl)sulfonyl)acetic acid]
22 | 16 | Cc1ccc(NC(=O)C2(c3ccccc3C(C)C)CN(C(=O)O[C@@H](C)C(=O)O)C2)c(OC(F)F)n1 [Ex 14-4, (S)-2-((3-((2-(difluoromethoxy)-6-methylpyridin-3-yl)carbamoyl)-3-(2-isopropylphenyl)azetidine-1-carbonyl)oxy)propanoic acid]
23 | 4 | CCOc1ccc(NC(=O)C2(c3ccccc3C(C)C)CN(S(N)(=O)=O)C2)c(OC)n1 [Ex 15-8, N-(6-ethoxy-2-methoxypyridin-3-yl)-3-(2-isopropylphenyl)-1-sulfamoylazetidine-3-carboxamide]
24 | 25 | Cc1ccc(NC(=O)C2(c3ccccc3C(C)C)CN(S(=O)(=O)NC(C)C)C2)c(OC(F)F)n1 [Ex 15-12, N-(2-(difluoromethoxy)-6-methylpyridin-3-yl)-3-(2-isopropylphenyl)-1-(N-isopropylsulfamoyl)azetidine-3-carboxamide]
25 | 2 | Cc1ccc(NC(=O)C2(c3ccccc3C(C)C)CN(c3ccncc3F)C2)c(OC(F)F)n1 [Ex 18-19, N-(2-(difluoromethoxy)-6-methylpyridin-3-yl)-1-(3-fluoropyridin-4-yl)-3-(2-isopropylphenyl)azetidine-3-carboxamide]
26 | 16 | Cc1ccc(NC(=O)C2(c3ccccc3C(C)C)CN(S(=O)(=O)CC3(C(=O)O)COC3)C2)c(OC(F)F)n1 [Ex 13-16, 3-(((3-((2-(difluoromethoxy)-6-methylpyridin-3-yl)carbamoyl)-3-(2-isopropylphenyl)azetidin-1-yl)sulfonyl)methyl)oxetane-3-carboxylic acid]
27 | 48 | Cc1ccc(NC(=O)C2(c3ccccc3C(C)C)CN(C(=O)N[C@@H](C)C(=O)O)C2)c(OC(F)F)n1 [Ex 17-9, (3-((2-(difluoromethoxy)-6-methylpyridin-3-yl)carbamoyl)-3-(2-isopropylphenyl)azetidine-1-carbonyl)-L-alanine]
28 | 6 | Cc1ccc(NC(=O)C2(c3ccccc3C3CCC3)CN(C(=O)CC(C)(C)C(=O)O)C2)c(OC(F)F)n1 [Ex 31-2, 4-(3-(2-cyclobutylphenyl)-3-((2-(difluoromethoxy)-6-methylpyridin-3-yl)carbamoyl)azetidin-1-yl)-2,2-dimethyl-4-oxobutanoic acid]
29 | 2 | Cc1ccc(NC(=O)C2(c3ccccc3C(C)C)CN(c3ncc(C#N)cn3)C2)c(OC(F)F)n1 [Ex 18-24, 1-(5-cyanopyrimidin-2-yl)-N-(2-(difluoromethoxy)-6-methylpyridin-3-yl)-3-(2-isopropylphenyl)azetidine-3-carboxamide]
30 | 7 | Cc1ccc(NC(=O)C2(c3ccccc3C(C)C)CN(C(=O)NCCC(C)(C)C(=O)O)C2)c(OC(F)F)n1 [Ex 17-19, 4-(3-((2-(difluoromethoxy)-6-methylpyridin-3-yl)carbamoyl)-3-(2-isopropylphenyl)azetidine-1-carboxamido)-2,2-dimethylbutanoic acid]
31 | 9 | COC(=O)C(C)(C)CNC(=O)N1CC(C(=O)Nc2ccc(C)nc2OC(F)F)(c2ccccc2C(C)C)C1 [Ex 17-16, methyl 3-(3-((2-(difluoromethoxy)-6-methylpyridin-3-yl)carbamoyl)-3-(2-isopropylphenyl)azetidine-1-carboxamido)-2,2-dimethylpropanoate]
